Measured values reported in article PMC7495481, “Sequence specificity analysis of the SETD2 protein lysine methyltransferase and discovery of a SETD2 super-substrate” (Communications Biology, 2020).
Where “and” joins values, the source holds several entries; their conditions need not be identical. Equal entries are not always repeated.

T1: SETD2 (Homo sapiens, UniProt Q9BYW2)
T1 construct: SETD2 catalytic SET domain (amino acids 1347–1711, UniProt No: Q9BYW2); made in house; host or cells: E. coli
T1 sequence (Q9BYW2 1347-1711): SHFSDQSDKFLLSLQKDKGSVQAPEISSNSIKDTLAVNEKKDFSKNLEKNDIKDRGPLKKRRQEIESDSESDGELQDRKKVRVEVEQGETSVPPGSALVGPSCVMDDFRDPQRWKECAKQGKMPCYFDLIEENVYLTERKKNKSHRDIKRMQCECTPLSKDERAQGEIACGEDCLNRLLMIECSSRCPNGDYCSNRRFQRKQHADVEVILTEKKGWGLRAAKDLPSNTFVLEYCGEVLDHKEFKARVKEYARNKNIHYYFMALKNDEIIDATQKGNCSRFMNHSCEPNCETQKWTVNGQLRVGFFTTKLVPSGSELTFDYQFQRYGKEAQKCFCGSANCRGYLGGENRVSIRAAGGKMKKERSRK

T2: His6-tagged catalytic SET domain of SETD2 (amino acids 1347–1711) (human, UniProt Q9BYW2 1347-1711)
T2 construct: also called SET-domain containing protein 2; KMT3A; source: E. coli, purified (Ni-NTA beads)
T2 sequence (looked up): T1 sequence (Q9BYW2 1347-1711)

B1: H3K36M (27–43) peptide (peptide, UniProt P68431 28-44, looked up)
peptide: KSAPATGGVMKPHRYRP
notes: histone H3 residues 27–43 with K36M (the oncohistone mutation); source: synthetic peptide, bought: Intavis AG (Köln)
B2: ssK36M peptide (29–43), super-substrate peptide with the target lysine changed to methionine (peptide)
peptide: APRFGGVMRPNRYRP
notes: histone H3 residues 29–43 (UniProt P68431 printed for the parent H3K36 peptide) with the four super-substrate exchanges and K36M; source: synthetic peptide, bought: Innovative Peptide Solutions (Berlin)

Key:
[1] = molecular target: T1, SETD2; assay: Peptide SPOT array methylation of reported SETD2 substrates; type: biochemical; conditions: SPOT array on cellulose membrane; 0.76 µM radioactive AdoMet, 3–6 µM SETD2, 60 min, pH 9; autoradiography
Protocol: Next, the SETD2 activity was tested on peptide SPOT arrays containing fifteen amino acid long peptides immobilized on a cellulose membrane. As reported SETD2 substrates, the H3K36 (29–43), α -tubulin (33–47) and STAT1 (518–532) peptides (with the target lysine centered in each case) were included, and peptides with the corresponding target lysine mutated to alanine were used as negative controls. The peptide array was incubated in methylation buffer supplemented with SETD2 and radioactively labeled AdoMet. […] Methylation of the previously reported non-histone substrates α -tubulin and STAT1 was not detectable at the peptide level and, therefore, they were excluded from further investigation.
(§1) Peptide arrays containing fifteen amino acid long peptides were synthesized using the SPOT synthesis method[48] with an Autospot peptide array synthesizer (Intavis AG, Köln, Germany). After synthesis, the obtained membranes were pre-incubated in methylation buffer (20 mM Tris/HCl pH 9, 0.01% Triton X-100, 10 mM DTT, 1.5 mM MgCl2) for 5 min on a shaker. Thereafter, the membranes were incubated in methylation buffer supplemented with 0.76 µM radioactively labeled AdoMet (PerkinElmer) and 3–6 µM SETD2 enzyme for 60 min on a shaker. After methylation, the membranes were washed 5 times for 5 min in wash buffer (100 mM NH4HCO3, 1% SDS) and incubated in amplify NAMP100V (GE Healthcare) for 5 min. This was followed by the exposure of the membranes to a hyperfilm^TM high performance autoradiography (GE Healthcare) film at −80 °C in the dark. The films were developed with an Optimax Typ TR machine after different exposue times. For quantification the signal intensities were measured with the Phoretix^TM software and analyzed with Microsoft Excel.
Supplementary Fig. 1: SETD2 protein and catalytic activity. a Purified His6-tagged SETD2 SET domain (1347-1711) was separated on an SDS-gel and […]
stained with Coomassie BB. […]
tubulin (33-47), STAT1 (518-532) and their corresponding target lysine to alanine mutant peptides were synthesized on a cellulose membrane. The membrane was incubated in methylation buffer supplemented with radioactively labeled AdoMet and SETD2. The signal of the transferred radioactive methyl groups was visualized by autoradiography.

[2] = molecular target: T1, SETD2; assay: Peptide SPOT array target lysine methylation of selected non-histone peptides (Fig. 3b); type: biochemical; conditions: Exp1–Exp3, 3–6 µM SETD2, 0.76 µM AdoMet, 60 min, pH 9
Source text: However, we could identify 166 possible targets, which contain partial matches to the substrate specificity profile. The possible methylation of these 166 putative substrates was investigated at the peptide level. For this, fifteen amino acid long peptides containing the sequence of the non-histone targets surrounding the predicted target lysine were synthesized on a membrane. The H3K36 (29–43) peptide (spots A1, I9), the super-substrate peptide (spots A3, I11) and the corresponding lysine to alanine mutation peptides (spot A2, I10, and A4, I12) were included as positive and negative controls (Fig. 3a, Supplementary Fig. 4 and Supplementary Table 2). The methylation reactions and the detection of the methylation signals were performed in duplicates as described above. We observed that all of the investigated peptides were more weakly methylated than the super-substrate peptide. […] In the next step, 20 of the peptides were selected for further investigation based on the methylation intensity and the known functions of the proteins to confirm the methylation at the predicted target site. The peptides were synthesized on another membrane, now including the target lysine to alanine mutation control peptides in each case. The methylation reactions and the detection of the signal were conducted as described above (Fig. 3b, Supplementary Fig. 5 and Supplementary Table 3).
Fig. 3 Identification of non-histone substrates of SETD2. a Candidate non-histone peptide substrates were identified in the human proteome based on the SETD2 super-substrate specificity profile. The peptides were synthesized on a peptide SPOT array (Supplementary Table 2) and methylated by SETD2. As controls, the H3K36, H3K36A, ssK36 and ssK36A peptides were included on spots A1–A4 and I9–I12. The autoradiography image is an example of the obtained results. […] The quantification of the data of two experiments is shown in Supplementary Fig. 4. b Analysis of target lysine methylation of selected non-histone substrate peptides. Peptide SPOT arrays were synthesized containing the non-histone peptide substrates identified in panel A in addition to the lysine to alanine mutations presented on the array as every second spot (Supplementary Table 3). As controls, the H3K36, H3K36A, ssK36, and ssK36A mutant peptides were included on spot A1–A4 and C5–C8. The autoradiography image is an example of the obtained results. The quantification of the data of three experiments is shown in Supplementary Fig. 5. Peptides selected for furhter analysis are highlighted by blue circles. c Protein methylation of FBN1 and confirmation of the target lysine methylation. Both wild type (WT) and mutant (K666R) FBN1 were purified and equal amounts were methylated by SETD2 (2 µM). […] The size of FBN1 is indicated by an asterisk.
as §1

[3] = molecular target: T1, SETD2; assay: Peptide SPOT array methylation of H3K36 (29–43) variants, super-substrate design (Fig. 2a); type: biochemical; conditions: SPOT array; 0.76 µM radioactive AdoMet, 3–6 µM SETD2, 60 min, pH 9; autoradiography
Source text: Based on these observations, we aimed to explore, if better substrates than H3K36 can be designed for SETD2. We synthesized peptide SPOT arrays including H3K36 (29–43) as a positive control and the H3K36A mutant as a negative control, in which up to 5 combined mutations were systematically introduced that converted the original H3K36 residues into residues that are more favored (Fig. 2a and Supplementary Table 1). This peptide array was methylated by SETD2 as described above and the methylation signal was captured by autoradiography.
Fig. 2 Design of an optimized SETD2 peptide substrate and analysis of its methylation. a Variants of the H3K36 (29–43) peptide containing up to five mutations (Supplementary Table 1) were synthesized on a cellulose membrane and methylated by SETD2. The signal of the transferred radioactive methyl groups was detected by autoradiography. Spots A1 and B15 contain the H3K36 sequence, A2 and B16 the H3K36A peptide. Two films with different exposure times are shown to visualize weaker methylated spots as well. b Comparison of the methylation of purified super-substrate (ssK36) and the H3K36 peptides. […] Methylation reactions were conducted using 20 µM peptide and 6 µM enzyme. The lower panels display autoradiography films after different exposure times allowing to compare the methylation levels of the different samples. For comparison, different dilutions of the methylated ssK36 were loaded as indicated. c Time course of ssK36 peptide methylation determined under single turnover conditions using 5 µM substrate and 6 µM enzyme. […] The gels with the radioactive ssK36 (5 µl loaded per well) and H3K36 peptides (20 µl loaded per well) were exposed together to the same x-ray film. […] An enlargement of the H3K36 data with adjusted y-axis scale is shown in Supplementary Fig. 3d.
as §1

[4] = molecular target: T1, SETD2; assay: Protein methylation assay (non-histone proteins, GST fusions, nucleosomes, H3.1); type: biochemical; conditions: based on own results and literature data, ref [18],[19]
Source text: The 9 new putative non-histone substrates of SETD2 were cloned into a pGEX-6p2 bacterial expression vector for protein expression. Six of them could be expressed and purified through glutathione sepharose beads (Table 1). For comparison, the super-substrate sequence was cloned with a […] GST-tag (ssK36-GST) to mimic the natural setting of the H3K36 site in the N-terminal tail of histone 3. Similar amounts of the purified non-histone substrate proteins and the ssK36-GST protein were loaded on an SDS-gel and stained with Coomassie BB (Supplementary Fig. 6a). Afterward protein methylation reactions were conducted using radioactively labeled AdoMet and the radioactive signal of the methyl group transfer was detected by autoradiography (Supplementary Fig. 6b). […] Next, we aimed to confirm the FBN1 methylation at the predicated target lysine K666. For this, a K666R mutation was introduced and the wildtype and mutant FBN1 proteins were purified by affinity chromatography. […]
Protein methylation reactions were performed in 40 µl methylation buffer containing 0.76 µM radioactive labeled AdoMet (PerkinElmer), approximately 20 µg of substrate protein and 6 µM SETD2 enzyme (if not otherwise indicated) for 3 h at 25 °C. […] The radioactive methylation signal was detected by a hyperfilm^TM high performance autoradiography film (GE Healthcare) at −80 °C in the dark. […]

[5] = molecular target: T2, His6-tagged catalytic SET domain of …; assay: enzyme inhibition kinetics (competitive inhibition of peptide methylation); 20 µM ssK36 (29–43) substrate peptide, 6 µM SETD2, inhibitor peptide 0 to 320 µM, methylation buffer (20 mM Tris/HCl pH 9, 0.01% Triton X-100, 10 mM DTT, 1.5 mM MgCl2) with 0.76 µM radioactively labeled AdoMet, 25 °C, Tricine-SDS-PAGE and autoradiography; global fit to a competitive inhibition steady-state model; conditions: both partners purified

Molecule	peptide spot methylation signal [1]	Relative methylation signal, Average [2]	also measured
APATGGVAKPHRYRP [K36A, H3K36A mutant peptide, negative control, reference compound]	did not show a detectable peptide methylation signal	0.2341 and 0.1607	–
APAFGGVKKPHRYRP [T32F]	–	–	peptide array methylation of H3K36 variants (in words) [3]: stepwise improvement of activity with increasing number of mutations
STCYGGYKRGQCIKP [FBN1, Fibrillin-1 peptide, target lysine 666]	–	0.6365	comparison of protein methylation efficiency [4]: more efficiently methylated than H3, α -tubulin and STAT1
DGQMPSDKTIGGGDD [α-tubulin (33–47), reported SETD2 substrate peptide, K40]	did not show a detectable peptide methylation signal	–	–
APATGGVKKPHRYRP [H3K36, H3K36 (29–43) peptide on SPOT array, reference compound]	detectable methylation	0.4318 and 0.3786	–
APRFGGVKRPHRYRP [A31R/T32F/K37R]	–	–	peptide array methylation of H3K36 variants (in words) [3]: stepwise improvement of activity with increasing number of mutations
B1	–	–	Ki [5]: 447 µM
B2	–	–	Ki [5]: 128 µM
